Activity calls are given as the source filed them.
Legend:
Vero = experiment: cells; type: functional; details: Chlorocebus sabaeus
HEK293 = experiment: inhibitors of LMP1-driven NF-kB reporter, dose response, cell-based, HEK293, luciferase, cherry-pick (AID 588343); type: functional; details: Homo sapiens
[1] = inhibitors of clade B AD8 Env fusion, dose response, cell-based, cherry-pick (AID 652062); type: functional;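 note: luciferase signal from cell-cell fusion driven by HIV-1 clade B AD8 Env; potency is for inhibitors of fusion seen as a drop in luminescence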
[2] = ZM109 Env clade C HIV-1 fusion inhibitors, dose response, HeLa effector, CEM target cells, luciferase, cherry-pick (AID 652058); type: functional, cell-based
[3] = off-target signal loss in HeLa-CEM21 co-culture – HeLa F-luc CTL cells, cherry-picked, counter-screen for HIV-1 Env fusion inhibitor project, dose response (AID 652040); type: functional, cell-based;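 note: potency for signal decrease marking cytotoxic or nonspecific inhibition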
[4] = inhibitors of HIV Env-driven cell fusion, dose response, cherry-pick (AID 652057); type: functional, cell-based
[5] = molecular target: T1, Ubiquitin-conjugating enzyme E2 N (Homo sapiens, UniProt P61088); type: functional;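 note: Dose-response confirmation in a TR-FRET assay detecting UBC13-driven polyubiquitin chain formation, inhibition measured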
T1 sequence (P61088 whole entry): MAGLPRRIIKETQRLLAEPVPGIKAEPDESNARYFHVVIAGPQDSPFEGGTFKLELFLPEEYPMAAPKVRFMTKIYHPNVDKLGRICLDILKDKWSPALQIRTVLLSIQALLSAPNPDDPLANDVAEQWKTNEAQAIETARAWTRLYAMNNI

[6] = molecular target: T2, Carboxy-terminal domain RNA polymerase II polypeptide A small phosphatase 1 (Homo sapiens, UniProt Q9GZU7); experiment: inhibitors of CTDSP1, concentration-response testing, biochemical assay, absorbance-based, actives from ultra-high-throughput screening (AID 540297); type: functional
T2 sequence (Q9GZU7 whole entry): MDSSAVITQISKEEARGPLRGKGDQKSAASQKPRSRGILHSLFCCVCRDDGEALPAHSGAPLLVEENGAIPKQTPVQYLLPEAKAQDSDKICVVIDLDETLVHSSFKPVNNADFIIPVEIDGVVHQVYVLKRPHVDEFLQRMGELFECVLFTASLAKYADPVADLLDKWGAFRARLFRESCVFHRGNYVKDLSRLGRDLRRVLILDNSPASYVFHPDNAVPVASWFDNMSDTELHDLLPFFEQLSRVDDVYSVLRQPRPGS

[7] = molecular target: T3, Short transient receptor potential channel 4 (Mus musculus, UniProt Q9QUQ5); experiment: mouse TRPC4 channel inhibitors, dose response, cell-based, HEK293 TRPC4/mu-opioid, Fluo-4 calcium (AID 434942); type: functional;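 note: potency of inhibitors blocking the TRPC4 calcium response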
T3 sequence (Q9QUQ5 whole entry): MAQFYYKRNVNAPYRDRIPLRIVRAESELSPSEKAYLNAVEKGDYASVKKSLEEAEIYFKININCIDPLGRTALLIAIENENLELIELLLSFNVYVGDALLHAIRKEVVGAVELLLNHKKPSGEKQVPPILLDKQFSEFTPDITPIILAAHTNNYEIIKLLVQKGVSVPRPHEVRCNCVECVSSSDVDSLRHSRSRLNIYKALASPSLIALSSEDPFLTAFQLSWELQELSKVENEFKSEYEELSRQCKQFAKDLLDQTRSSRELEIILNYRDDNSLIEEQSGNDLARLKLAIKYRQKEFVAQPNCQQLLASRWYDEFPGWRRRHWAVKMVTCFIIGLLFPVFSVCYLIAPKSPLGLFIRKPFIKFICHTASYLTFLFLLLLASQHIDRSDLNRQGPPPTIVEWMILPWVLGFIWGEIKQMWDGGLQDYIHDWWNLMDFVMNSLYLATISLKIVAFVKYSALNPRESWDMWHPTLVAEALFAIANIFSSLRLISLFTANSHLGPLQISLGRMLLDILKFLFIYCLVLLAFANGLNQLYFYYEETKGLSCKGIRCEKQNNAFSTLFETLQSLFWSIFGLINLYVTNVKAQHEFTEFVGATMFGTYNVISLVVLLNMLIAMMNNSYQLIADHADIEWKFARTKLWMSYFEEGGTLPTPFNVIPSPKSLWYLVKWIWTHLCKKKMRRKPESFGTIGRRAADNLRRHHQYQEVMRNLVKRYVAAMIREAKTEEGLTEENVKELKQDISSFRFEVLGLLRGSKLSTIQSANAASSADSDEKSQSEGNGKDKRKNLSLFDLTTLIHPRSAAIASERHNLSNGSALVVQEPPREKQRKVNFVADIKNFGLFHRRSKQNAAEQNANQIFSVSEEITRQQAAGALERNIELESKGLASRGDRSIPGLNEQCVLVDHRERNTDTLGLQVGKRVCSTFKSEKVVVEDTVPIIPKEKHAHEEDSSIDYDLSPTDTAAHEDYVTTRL

[8] = molecular target: T4, DNA repair and recombination protein RAD54-like (Homo sapiens, UniProt Q92698); experiment: inhibitors of human RAD54 branch migration, confirmation, biochemical, fluorescence, cherry-picked samples, dose series (AID 651657); type: functional
T4 sequence (Q92698 whole entry): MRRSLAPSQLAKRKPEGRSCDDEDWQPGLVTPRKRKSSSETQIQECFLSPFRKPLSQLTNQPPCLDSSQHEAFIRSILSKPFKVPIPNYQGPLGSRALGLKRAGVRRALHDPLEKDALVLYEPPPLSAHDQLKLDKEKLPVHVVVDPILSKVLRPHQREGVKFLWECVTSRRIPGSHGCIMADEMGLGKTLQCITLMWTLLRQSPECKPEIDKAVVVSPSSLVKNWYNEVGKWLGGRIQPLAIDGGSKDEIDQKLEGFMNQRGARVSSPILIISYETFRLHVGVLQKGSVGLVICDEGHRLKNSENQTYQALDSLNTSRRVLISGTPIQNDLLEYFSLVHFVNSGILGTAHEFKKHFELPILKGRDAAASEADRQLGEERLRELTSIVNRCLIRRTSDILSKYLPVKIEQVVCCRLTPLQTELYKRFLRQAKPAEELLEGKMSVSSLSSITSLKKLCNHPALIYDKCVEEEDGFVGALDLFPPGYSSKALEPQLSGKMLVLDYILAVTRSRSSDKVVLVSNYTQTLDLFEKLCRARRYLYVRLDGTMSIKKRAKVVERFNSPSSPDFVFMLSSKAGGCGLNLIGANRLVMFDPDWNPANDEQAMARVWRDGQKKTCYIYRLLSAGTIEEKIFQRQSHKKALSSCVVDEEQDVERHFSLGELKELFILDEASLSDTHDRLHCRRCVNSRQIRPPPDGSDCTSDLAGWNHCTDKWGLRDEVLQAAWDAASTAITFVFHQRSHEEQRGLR

[9] = molecular target: T5, High affinity choline transporter 1 (Homo sapiens, UniProt Q9GZV3); experiment: CHT inhibitors, dose response, cell-based, 5-point CRC, membrane potential dye (AID 504840); type: functional
T5 sequence (Q9GZV3 whole entry): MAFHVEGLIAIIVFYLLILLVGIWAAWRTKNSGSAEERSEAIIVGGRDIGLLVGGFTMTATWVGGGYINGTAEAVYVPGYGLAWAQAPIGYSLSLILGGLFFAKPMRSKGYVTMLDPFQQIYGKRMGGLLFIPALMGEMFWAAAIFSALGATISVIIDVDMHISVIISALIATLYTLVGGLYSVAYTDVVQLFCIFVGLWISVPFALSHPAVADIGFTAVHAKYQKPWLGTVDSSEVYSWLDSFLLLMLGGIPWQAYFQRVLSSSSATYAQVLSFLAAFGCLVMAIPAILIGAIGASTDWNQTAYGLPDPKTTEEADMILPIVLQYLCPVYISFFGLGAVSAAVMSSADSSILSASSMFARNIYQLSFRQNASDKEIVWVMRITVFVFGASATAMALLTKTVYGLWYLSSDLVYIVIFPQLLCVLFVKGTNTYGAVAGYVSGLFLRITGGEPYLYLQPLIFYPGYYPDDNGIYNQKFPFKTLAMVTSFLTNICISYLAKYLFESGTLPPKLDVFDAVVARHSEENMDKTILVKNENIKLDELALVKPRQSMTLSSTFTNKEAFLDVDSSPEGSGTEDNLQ

Fatty acid synthase [10] = molecular target: T6, Fatty acid synthase (Homo sapiens, UniProt P49327); experiment: FAS thioesterase domain inhibitors, dose response, biochemical, kinetic fluorescence intensity (AID 624326); type: functional;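 note: rate of fluorescence rise from hydrolysis of a fluorogenic O-methyl fluorescein ester substrate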
T6 sequence (P49327 whole entry, the tested form may be a part): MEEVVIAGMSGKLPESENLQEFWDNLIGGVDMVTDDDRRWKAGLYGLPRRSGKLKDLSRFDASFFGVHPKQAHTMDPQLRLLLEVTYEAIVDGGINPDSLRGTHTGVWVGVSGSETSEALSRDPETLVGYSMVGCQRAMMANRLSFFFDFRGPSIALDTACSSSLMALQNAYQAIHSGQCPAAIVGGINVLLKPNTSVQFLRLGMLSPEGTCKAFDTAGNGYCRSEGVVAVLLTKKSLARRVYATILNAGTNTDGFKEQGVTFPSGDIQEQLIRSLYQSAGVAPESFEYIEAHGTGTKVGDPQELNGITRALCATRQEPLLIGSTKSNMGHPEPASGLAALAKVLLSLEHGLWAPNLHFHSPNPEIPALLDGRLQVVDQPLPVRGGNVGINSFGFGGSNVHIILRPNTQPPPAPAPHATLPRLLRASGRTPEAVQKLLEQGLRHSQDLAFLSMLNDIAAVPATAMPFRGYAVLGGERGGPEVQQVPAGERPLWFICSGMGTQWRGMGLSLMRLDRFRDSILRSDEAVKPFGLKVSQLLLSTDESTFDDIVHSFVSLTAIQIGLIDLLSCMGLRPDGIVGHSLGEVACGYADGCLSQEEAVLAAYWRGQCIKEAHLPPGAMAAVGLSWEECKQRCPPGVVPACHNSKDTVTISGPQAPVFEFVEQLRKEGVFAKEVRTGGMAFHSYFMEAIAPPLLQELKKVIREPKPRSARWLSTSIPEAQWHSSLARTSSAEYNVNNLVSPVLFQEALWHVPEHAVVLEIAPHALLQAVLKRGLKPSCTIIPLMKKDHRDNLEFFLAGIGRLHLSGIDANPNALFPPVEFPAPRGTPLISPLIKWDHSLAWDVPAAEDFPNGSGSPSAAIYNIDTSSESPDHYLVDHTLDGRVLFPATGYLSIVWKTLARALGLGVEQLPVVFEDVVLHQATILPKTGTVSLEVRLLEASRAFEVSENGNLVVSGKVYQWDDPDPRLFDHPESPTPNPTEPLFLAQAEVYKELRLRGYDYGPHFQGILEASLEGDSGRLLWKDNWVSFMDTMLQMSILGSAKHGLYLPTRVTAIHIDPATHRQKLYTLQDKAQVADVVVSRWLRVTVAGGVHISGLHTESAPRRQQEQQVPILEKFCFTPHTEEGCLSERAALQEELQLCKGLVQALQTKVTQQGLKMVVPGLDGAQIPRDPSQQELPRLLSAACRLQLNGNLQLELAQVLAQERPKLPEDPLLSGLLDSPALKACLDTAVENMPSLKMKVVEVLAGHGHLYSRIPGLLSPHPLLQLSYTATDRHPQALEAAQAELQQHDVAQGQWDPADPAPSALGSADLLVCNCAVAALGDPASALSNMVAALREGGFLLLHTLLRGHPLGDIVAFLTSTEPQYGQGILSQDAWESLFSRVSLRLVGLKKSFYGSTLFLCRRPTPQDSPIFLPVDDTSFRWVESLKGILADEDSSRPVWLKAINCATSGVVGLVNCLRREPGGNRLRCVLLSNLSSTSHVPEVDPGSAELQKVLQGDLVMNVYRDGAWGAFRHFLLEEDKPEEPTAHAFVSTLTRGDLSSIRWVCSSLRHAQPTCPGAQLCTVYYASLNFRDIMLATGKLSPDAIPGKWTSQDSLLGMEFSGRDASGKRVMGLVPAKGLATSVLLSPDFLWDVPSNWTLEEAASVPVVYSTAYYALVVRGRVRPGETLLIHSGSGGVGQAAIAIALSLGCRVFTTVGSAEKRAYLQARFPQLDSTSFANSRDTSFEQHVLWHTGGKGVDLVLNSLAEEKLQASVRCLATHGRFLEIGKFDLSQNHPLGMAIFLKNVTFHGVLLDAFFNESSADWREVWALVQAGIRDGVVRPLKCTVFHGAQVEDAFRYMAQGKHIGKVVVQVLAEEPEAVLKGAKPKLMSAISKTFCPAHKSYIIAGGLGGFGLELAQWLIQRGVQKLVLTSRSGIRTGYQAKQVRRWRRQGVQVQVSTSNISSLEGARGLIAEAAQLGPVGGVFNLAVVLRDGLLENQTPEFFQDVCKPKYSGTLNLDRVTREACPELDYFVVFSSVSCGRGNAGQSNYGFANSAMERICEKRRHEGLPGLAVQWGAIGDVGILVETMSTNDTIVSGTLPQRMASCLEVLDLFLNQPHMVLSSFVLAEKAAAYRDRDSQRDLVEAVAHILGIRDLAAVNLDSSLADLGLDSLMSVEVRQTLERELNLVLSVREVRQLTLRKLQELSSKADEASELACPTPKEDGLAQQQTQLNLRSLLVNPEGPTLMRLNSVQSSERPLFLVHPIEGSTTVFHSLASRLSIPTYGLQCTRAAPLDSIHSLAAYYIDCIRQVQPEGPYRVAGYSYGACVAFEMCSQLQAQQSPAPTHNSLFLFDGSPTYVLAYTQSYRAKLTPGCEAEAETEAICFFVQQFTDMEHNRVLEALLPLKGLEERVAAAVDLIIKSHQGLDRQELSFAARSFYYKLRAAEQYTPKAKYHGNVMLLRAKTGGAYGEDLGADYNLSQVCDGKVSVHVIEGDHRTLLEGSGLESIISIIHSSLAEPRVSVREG

cells = type: functional
Fatty acid synthase [11] = molecular target: T6, Fatty acid synthase; experiment: FAS thioesterase domain inhibitors, dose response, biochemical, endpoint fluorescence intensity, uHTS hits (AID 624327); type: functional;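 note: fluorescence from hydrolysis of an O-methyl fluorescein acyl ester substrate by the enzyme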
Paired box protein Pax-8 = Paired box protein Pax-8 (Homo sapiens, UniProt Q06710); experiment: inhibitors of PAX8-driven TPO luciferase reporter, dose response, RMG-I cells, cherry-pick (AID 687027); type: functional, cell-based;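 note: luciferase reporter driven by Pax8 target thyroperoxidase promoter measured by SteadyGlo luminescence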
Paired box protein Pax-8, sequence (Q06710 whole entry, the tested form may be a part): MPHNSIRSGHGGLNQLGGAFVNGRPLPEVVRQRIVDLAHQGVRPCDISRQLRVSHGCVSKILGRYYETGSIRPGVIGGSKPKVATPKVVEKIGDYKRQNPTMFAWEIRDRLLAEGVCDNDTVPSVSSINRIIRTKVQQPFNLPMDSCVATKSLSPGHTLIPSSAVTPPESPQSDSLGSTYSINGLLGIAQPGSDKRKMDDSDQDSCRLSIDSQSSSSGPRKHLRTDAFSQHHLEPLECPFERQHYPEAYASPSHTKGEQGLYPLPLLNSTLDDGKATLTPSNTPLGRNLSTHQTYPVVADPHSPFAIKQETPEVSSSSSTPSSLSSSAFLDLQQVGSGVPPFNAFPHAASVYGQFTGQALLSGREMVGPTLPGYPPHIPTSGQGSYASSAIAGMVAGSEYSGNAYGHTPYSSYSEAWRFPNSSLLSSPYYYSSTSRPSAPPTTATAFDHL

CHO = experiment: cytotoxicity in TLR9-MyD88 CHO cells, dose response, cytotoxicity control for TLR9-MyD88 binding inhibitor project, cell-based, luminescence (AID 588339); type: functional, hamster; details: Cricetulus griseus;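 note: CHO cells stably coexpressing TLR9 and MyD88 fusions from primary screen; compound exposure lasted 48 hours before viability readout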
H9c2 = experiment: cells; type: functional, cell-based; details: Rattus norvegicus, H9c2, Myocardium;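 note: confirmatory concentration-response retest of ultra-high-throughput screening hits for modulation of myocardial damage; cell death induced by hydrogen peroxide oxidative stress; compound pretreatment for 60 min then peroxide exposure for 2 h; potency is for protecting the cells against peroxide damage rather than for killing them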

In the case of `CC(C)CC1C(=O)N(Cc2cn(CC3CCCCC3)nn2)CCS(=O)(=O)N1Cc1ccc(-c2ccc(F)nc2)cc1` (configuration not stated), the CC50 (Vero) is reported as 19.6 µM (active) and the AC50 (HEK293) is reported as 32.8 µM (active).

In the case of `CCN(C[C@H]1N[C@@](C)(C(=O)OC)[C@H]2C(=O)N(Cc3ccccc3)C(=O)[C@@H]12)C(=O)Nc1ccccc1`, the AC50 [1] is reported as 2.56 µM (active), the AC50 [2] is reported as 2.42 µM (active) and the AC50 [3] is reported as 3.81 µM (active). The AC50 [4] was 2.92 µM (active).

In the case of `CCCC(C(=O)NC(C)(C)C)N(CC1CCCO1)C(=O)c1snc(C(N)=O)c1N` (configuration not stated), the IC50 [5] is reported as > 20 µM (inactive).

With `COCCN(C(=O)Cn1nnc2ccccc21)C(C(=O)NC1CCCCC1)c1ccc(OC)cc1OC` (configuration not stated) the IC50 [6] was 14.9 µM (active).

For `CCN(CC)S(=O)(=O)c1ccc(C(=O)OCC(=O)NCc2ccco2)cc1`, the IC50 [6] was 11.1 µM (active).

With `COc1ccc(N(C(=O)c2snc(C(N)=O)c2N)C(C(=O)NC2CCCC2)c2ccc3ncccc3c2)cc1` (configuration not stated) the IC50 [5] was > 20 µM (inactive).

In the case of `CC1CCN(CCCNC(=O)c2ccc3c(Cl)c4c(nc3c2)CCCC4)CC1`, the CC50 (Vero) is reported as > 25 µM (active).

For `Clc1ccc(-c2csc3ncnc(NCCN4CCOCC4)c23)cc1`, the AC50 [1] was 18.1 µM (active), the AC50 [2] was 2.24 µM (active) and the AC50 [3] was > 70 µM (inactive). The AC50 [4] was 3.74 µM (active) and the EC50 [7] was 3.35 µM (active).

With `CCOC(=O)c1cnc2c(C)cccc2c1NCCCN1CCOCC1` the AC50 [8] was 16.6 µM (active).

With `O=C(C[n+]1cc(Br)cc2ccccc21)c1ccc(Br)cc1` the IC50 [9] was 11.4 µM (active).

In the case of `CN1CCN(c2cc(N3CCNCC3)ccc2[N+](=O)[O-])CC1`, the AC50 [8] is reported as 14.5 µM (active).

With `CC1=C(C(=O)OCCOc2ccccc2)C(c2ccsc2)NC(=O)N1C` (configuration not stated) the IC50 [9] was 13.2 µM (active).

For `O=C(OCC(=O)N1CCc2ccccc2C1)c1cccc([N+](=O)[O-])c1`, the IC50 (Fatty acid synthase [10]) was 10.9 µM (active), the IC50 (cells) was 23.1 µM (active) and the IC50 (Fatty acid synthase [11]) was 9.14 µM (active). For the same compound, the EC50 [7] was 2.37 µM (active).

For `O=C(O)c1[nH]c2ccc(Cl)cc2c1CC(=O)N1CCN(c2ccccc2)CC1`, the IC50 [9] was 13.2 µM (active).

In the case of `CN(CCNC(=O)CCCOc1cc(=O)n(C)c2ccccc12)Cc1ccccc1`, the IC50 [5] is reported as > 20 µM (inactive).

In the case of `N#Cc1ccc(NC(=O)COC(=O)C2CCC2)cc1`, the AC50 (Paired box protein Pax-8) is reported as 21.7 µM (active).

For `COc1ccc(S(=O)(=O)c2cnc(S)nc2O)cc1Cl`, the IC50 [6] was 8.64 µM (active).

With `CCN(CC)CCCNc1nc(-c2ccccc2)nc2ccccc12` the AC50 [8] was 13 µM (active).

In the case of `O=C(COC(=O)c1ccccc1NCCO)Nc1cccc(S(=O)(=O)NC2=NCCCCC2)c1`, the IC50 [6] is reported as 10.2 µM (active).

In the case of `CCOC(=O)N1CCN(C(=O)c2ccc3c(c2)N(Cc2ccc(F)cc2)CCS3)CC1`, the IC50 [5] is reported as > 20 µM (inactive).

In the case of `Cc1cc(SCc2cc(=O)n3ccsc3n2)nc2ccccc12`, the IC50 [9] is reported as 13.2 µM (active).

In the case of `CCNc1nc(NCC)n2c(SCC(=O)Nc3cccc(Cl)c3)nnc2n1`, the IC50 [6] is reported as 16.2 µM (active).

In the case of `CS(=O)(=O)c1sc2nc(-c3ccccc3)cc(-c3ccccc3)c2c1N`, the IC50 (CHO) is reported as > 49.8 µM (inactive).

For `COc1cccc(S(=O)(=O)N(C)C[C@H]2Oc3cc(C4=CCCCC4)ccc3S(=O)(=O)N([C@H](C)CO)C[C@H]2C)c1`, the AC50 [1] was 2.06 µM (active) and the AC50 [4] was 0.409 µM (active).

For `COc1cc(NC(=O)c2csc(-c3ccncc3)n2)cc(C(=O)Nc2cccc(C(F)(F)F)c2)c1`, the IC50 (H9c2) was > 79 µM (inactive) and the IC50 [9] was 6.44 µM (active).

In the case of `COc1ccc(NC(=O)CSc2nc3ccsc3c(=O)n2CCCCCC(=O)O)cc1`, the IC50 [5] is reported as > 20 µM (inactive).

In the case of `Cc1ccc(Sc2ccc(CO)cc2[N+](=O)[O-])cc1`, the EC50 [7] is reported as 3.35 µM (active).

In the case of `CC(c1ccccc1)n1c(-c2cccs2)nc2c(c(=O)c3ccccc3n2C)c1=O` (configuration not stated), the CC50 (Vero) is reported as > 25 µM (active).

With `Cc1ccc(O)c(C(=O)c2cnn(C(=O)COc3ccc(Cl)cc3)c2)c1` the IC50 [6] was 3.89 µM (active).

In the case of `O=C1c2cccc3cccc(c23)C(=O)N1CCN1CCN(CC(O)COc2ccccc2)CC1` (configuration not stated), the IC50 [5] is reported as > 20 µM (inactive).

For `CN1CCc2ccccc2Cc2[nH]c3ccccc3c2CC1`, the AC50 [2] was 8.06 µM (active), the AC50 [3] was > 70 µM (inactive) and the AC50 [4] was 25.6 µM (active).

For `COC(=O)c1cccc(NC(S)=Nc2cccc(Cl)c2Cl)c1`, the EC50 [7] was 8.41 µM (active).
